# Data published in patent US12195551B2, “Combination of an ErbB-2/ErbB-3 bispecific antibody with endocrine therapy for breast cancer” (Merus N.V., priority 2017, dated 2025).
# Where “and” joins values, the source holds several entries; their conditions need not be identical. Identical values can stand only once. Entries after “also recorded” stand apart in the source; their conditions may differ.
# Experiments:
# HER2:HER3 dimers = assay: VeraTag assay HER2:HER3 dimers in MCF-7 xenograft tumors; type: in vivo, human
# Procedure: (§3) Modulation of levels of total HER2, total HER3 and HER2:HER3 dimers in MCF-7 tumors after 8 day treatment period. […] 24 hours after the last dose, tumors were harvested, processed to FFPE and subjected to VeraTag analysis for the indicated assays. Five independent tumors per treatment group were used for the final analysis. A statistical t-test compared all groups independently. * indicates P<0.01.
# (§4) All formalin-fixed tumors from example 2 were processed to FFPE blocks. The initial VeraTag assay analysis (round 1) was performed with 3 tumors per group
# (§5) Prior to the VeraTag analysis, tumors were sectioned and stained with hematoxylin-eosin to determine the percentage of tumor content. Microlaser capture was used to grossly remove any non-tumor content. The initial round of analysis included the following five VeraTag assays: total HER2, total HER3, HER2:HER3 dimers, HER3-PI3K complexes and phosphorylated HER3.
# (§6) The tumors analyzed in Round 1 that had scores close to the average value of the specific assays were included in Round 2 to estimate the inter-assay reproducibility and to ensure the data from the two independent experiments could be combined.
# HER3 [1] = details: in vitro and in vivo; cited from earlier work
# [2] = test system: MCF-7 human breast carcinoma; assay: Efficacy in nude mouse xenograft model of MCF-7 human breast carcinoma; type: in vivo; details: for % TGI (tumor growth inhibition): D25, relative to the control group, Faslodex 5.0 mg/animal, Tamoxifen 1 mg/animal; for % TGI (tumor growth inhibition) / median tumor volume: MCLA-128 25 mg/kg i.p.; for median tumor volume: D25, Faslodex 5.0 mg/animal s.c. qwk×5, Tamoxifen 1 mg/animal s.c. qod×15; for P relative to the control group: D25 tumor volumes, Mann-Whitney test; for anti-tumor efficacy / survival benefit (in words): MCF-7 nude mouse xenograft model; for Volume (mm^3) of xenograft MCF-7 tumors / Weight (mgs) of xenograft MCF-7 tumors: individual tumors of sampling groups 8-10 for pharmacodynamic analysis, 8 day treatment, harvested 24 hours after last dose
# Procedure: MCLA-128 was evaluated as monotherapy and in combination with the SERM Tamoxifen and SERD Fulvestrant (Faslodex®) for efficacy in a nude mouse xenograft model of estrogen responsive MCF-7 human breast carcinoma. The study design also included tumor collection for downstream analysis.
# Treatments began on D1 in mice with established subcutaneous MCF-7 tumors. The study endpoint was intended to be a tumor volume endpoint of 1000 mm3 45 days, whichever came first. […] Tumor regressions, mean tumor growth, and treatment tolerability also were considered.
# The animals were fed ad libitum water (reverse osmosis, 1 ppm Cl) and NIH 31 Modified and Irradiated Lab Diet® consisting of 18.0% crude protein, 6.0% crude fat, and 5.0% crude fiber. The mice were housed on irradiated Enrich-o'Cobs™ Laboratory Animal Bedding in static 85 microisolators on a 12-hour light cycle at […] (68-72° F.) and 40-60% humidity.
# Three days prior to tumor cell implantation, estrogen pellets (0.36 mg estradiol, 60-day release, Innovative Research of America, Sarasota, FL) were implanted subcutaneously between the scapulae of all test animals using a sterilized trocar.
# Xenografts were initiated with cultured MCF-7 human breast carcinoma cells. Tumor cells were grown to mid-log phase in RPMI-1640 medium containing 10% fetal bovine serum, 100 units/mL penicillin G, 100 μg/mL streptomycin sulfate, 2 mM glutamine, 10 mM HEPES, 0.075% sodium bicarbonate and 25 μg/mL gentamicin. On the day of tumor cell implant, the cells were trypsinized, pelleted, and resuspended in phosphate buffered saline (PBS) at a concentration of 1×10e8 cells/mL. Each test mouse received 1×10e7 MCF-7 cells implanted subcutaneously in the right flank, and tumor growth was monitored as their mean volume approached the desired 100 to 150 mm3 range.
# Nineteen days after tumor cell implantation, designated as D1 of the study, the mice were placed into six groups of 15 animals and four groups of six animals, Individual tumor volumes ranged from 75 to 196 mm3 and group mean tumor volumes of 134-137 mm3 on D1. Tumor weight was estimated with the assumption that 1 mg is equivalent to 1 mm3 of tumor volume.
# MCLA-128 was stored at 4° C., was provided pre-formulated at 2.5 mg/mL and ready to dose as 25 mg/kg in a 10 mL/kg dose volume, and was protected from light during storage and handling. Tamoxifen (Sigma-25 Aldrich. Lot No. WXBB5732V) was received as a powder and was stored at 4° C. protected from light. Each week, a 5 mg/mL dose solution was prepared in corn oil, and each mouse received 0.2 mL for a dose of 1 mg/animal. The dose solution was stored at 4° C. Fulvestrant tradename Faslodex® (AstraZeneca, Lot No. LV032, LW466, and LX432) was received as 50 mg/mL stock solution that was stored at 4° C. Each dosing day, the stock was diluted in corn oil to 25 mg/mL, and each mouse received 0.2 mL for a dose of 5 mg/animal.
# Groups 1 and 7 served as controls for efficacy and sampling, respectively, and received MCLA-128 vehicle intraperitoneally (i.p.) on D1, 4, 8, 11, 15, 18, 22, 25, and 29 and corn oil subcutaneously (s.c.) every other day for fifteen doses (qod×15). Groups 2 and 8 were administered MCLA-128 at 25 mg/kg, i.p., on the same schedule as MCLA-128 vehicle. Groups 3 and 9 were administered Faslodex® at 5.0 mg/animal, s.c., once weekly for five weeks (qwk×5). Group 4 was administered Tamoxifen at 1 mg/animal, s.c., qod×15. Groups 5 and 10 received MCLA-128 and Faslodex®, on the regimens described above. Group 6 received MCLA-128 and Tamoxifen on the regimens described above.
# MCLA-128 was administered at a 10 mL/kg dose volume, scaled to the individual body weight of each animal.
# total HER3 = assay: VeraTag assay total HER3 in MCF-7 xenograft tumors; type: in vivo, human; details: data from both rounds combined; 8 day treatment
# Procedure: as §3, §4, §5, §6
# Akt = assay: Reverse phase protein array (RPPA) in MCF-7 tumor xenografts: Akt; type: in vivo, human; details: vs vehicle group, one-way ANOVA; tumors collected at maximum tolerated volume or day 39
# Source text: (§1) FIG. 9. Reverse phase protein array (RPPA) in MCF-7 tumor xenografts treated with vehicle, MCLA-128, Fulvestrant, Tamoxifen, MCLA-128+ Fulvestrant or MCLA-128+ Tamoxifen. Proteins detected in this assay included (phospho)-Akt and (phospho)-HER3 (full data provided in Appendix 4). One-way ANOVA compared levels in all tumors derived from treatment groups with those derived from the PBS group. ** indicates P<0.01.
# (§2) Tumors from groups 1-6 were collected when they had reached the maximum tolerated volume, or at the end of the experiment at day 39, which was 10 days after the last dose. Per treatment group, six tumors were included in the Reverse phase protein array (RPPA). The selection of tumors was made so that the average tumor size of the 6 specimens was close to that of the whole group. RPPA analysis was performed as follows: tumors were sectioned and placed on immunohistochemistry slides. Stromal and inflammatory content was macrodissected to purify for tumors cells. Protein lysates were prepared and protein content was quantified. […] Reverse phase protein array (RPPA) data were analyzed using one-way ANOVA to detect significant differences between the treatment groups and the vehicle group. […] Total ERK levels were increased in the single agent groups only, no differences were measured in the other groups or in the phosphorylated ERK analysis. […]
# HER2 = assay: Reverse phase protein array (RPPA) in MCF-7 tumor xenografts: HER2; type: in vivo, human; details: vs vehicle group, one-way ANOVA
# Source text: as §1, §2
# HER3 [3] = assay: Reverse phase protein array (RPPA) in MCF-7 tumor xenografts: HER3; type: in vivo, human; details: vs vehicle group, one-way ANOVA
# Source text: as §1, §2
# HER3-PI3K complexes = assay: VeraTag assay HER3-PI3K complexes in MCF-7 xenograft tumors; type: in vivo, human; details: round 1
# Procedure: (§7) The initial VeraTag assay analysis (round 1) was performed with 3 tumors per group
# as §5
# total HER2 = assay: VeraTag assay total HER2 in MCF-7 xenograft tumors; details: data from both rounds combined; 8 day treatment
# Procedure: as §3, §4, §5, §6
# phosphorylated HER3 = assay: VeraTag assay phosphorylated HER3 in MCF-7 xenograft tumors; type: in vivo, human; details: round 1
# Procedure: as §7, §5
# [4] = test system: total HER2, total HER3, HER2:HER3 dimers, HER3-PI3K complexes and phosphorylated HER3; assay: VeraTag assays (five assays) on MCF-7 xenograft tumors; type: in vivo, human; details: round 1, 3 tumors per group
# Procedure: Xenograft mice were treated for 8 days with a total of 3 doses of MCLA-128 or 2 doses of Fulvestrant or the combination thereof. 24 hours after the last dose, tumors were harvested, processed to FFPE and subjected to VeraTag analysis for the indicated assays. Five independent tumors per treatment group were used for the final analysis. A statistical t-test compared all groups independently. * indicates P<0.01.
# as §7, §5
# [5] = MCLA-128 25 mg/kg i.p., Letrozole […] p.o. qdx57
# Procedure: All animals were weighed biweekly during the experimental period.
# Toxicity of the different treatments was determined as: body weight loss percent (% BWL)=100−(mean BWx/mean BW0×100), where BWx is the mean BW at any day during the treatment and BW0 is the mean BW on the 1st day of treatment.
# [6] = test system: cells stimulated with high concentrations of heregulin (HRG); assay: In vitro potency in heregulin-stimulated cells; type: cell-based
# [7] = test system: human HBCx-34 breast tumor xenograft; assay: Antitumor efficacy in HBCx-34 patient-derived breast cancer xenograft (study XTS-1521); type: in vivo, mouse
# Procedure: Antitumor efficacy of an HER2/HER3 targeting antibody was determined in the context of a combination treatment together with an aromatase inhibitor. […] It was used as single agent and in combination with the aromatase inhibitor Letrozole. The hormone-dependent HBCx-34 patient-derived breast cancer xenograft model established in immunodeficient mice was used as an example of a breast cancer.
# The HBCx-34 PDX model was derived from a treatment-naïve primary breast infiltrating ductal carcinoma.
# Tumor-bearing mice received estrogen diluted in drinking water (β-oestradiol, 8.5 mg/l), from the date of tumor implant to the date of inclusion. During the treatment period, mice were not supplemented with estrogen.
# Tumors of the same passage were transplanted subcutaneously onto 6-24 mice (donor mice, passage (n−1)). When these tumors reached 1000 to 2000 mm^3, donor mice were sacrificed by cervical dislocation, tumors were aseptically excised and dissected. After removing necrotic areas, tumors were cut into fragments measuring approximately 20 mm^3 and transferred in culture medium before grafting.
# 95 mice were anaesthetized with 100 mg/kg ketamine hydrochloride (batch 5D92, Exp: 2017/03, Virbac) and 10 mg/kg xylazine (batch KP0AX9X, Exp: 2017/08, Bayer), and then skin was aseptized with a chlorhexidine solution, incised at the level of the interscapular region, and a 20 mm^3 tumor fragment was placed in the subcutaneous tissue. Skin was closed with clips. All mice from the same experiment were implanted on the same day.
# Treatments were randomly attributed to boxes housing up to 5 mice and were initiated 36 days post implantation of the tumor (42% inclusion rate). The study was terminated following 57 days after the start of treatment.
# Tumor volume was evaluated by measuring tumor diameters, with a calliper, biweekly during the experimental period.
# The formula TV (mm3)=[length (mm)×width (mm)2]/2 was used, where the length and the width are the longest and the shortest diameters of the tumor, respectively.
# A total of 4 groups were used as summarized in the scheme below. Each group initially included 10 mice.
# All treatment doses were body weight adjusted at each injection.
# [8] = MCLA-128 25 mg/kg IP, Letrozole […] PO qdx57
compound,measurement,setting,value
C[C@]12CC[C@@H]3c4ccc(O)cc4C[C@@H](CCCCCCCCC[S+]([O-])CCCC(F)(F)C(F)(F)F)[C@H]3[C@@H]1CC[C@@H]2O (stereo partly drawn) [Fulvestrant],HER2:HER3 dimerization (VeraTag),"HER2:HER3 dimers; data from both rounds combined, 8 day treatment",significantly induced HER2:HER3 dimerization compared to vehicle; also recorded: induces the formation of HER2:HER3 dimers
same,HER2:HER3 dimers (VeraTag),"HER2:HER3 dimers; round 1, 3 tumors per group",significantly upregulated the formation of HER2:HER3 dimers
same,HER3 expression in MCF-7 cells,HER3 [1],upregulate HER3 expression
same,% TGI (tumor growth inhibition),[2],52%
same,median tumor volume,[2],288 mm3
same,P relative to the control group,[2],< 0.001
same,anti-tumor efficacy / survival benefit (in words),[2],significantly reduced tumor growth
same,Volume (mm^3) of xenograft MCF-7 tumors,[2]; listed as Faslodex®,196 mm^3 (3×) and 172 mm^3 and 144 mm^3
same,Weight (mgs) of xenograft MCF-7 tumors,[2]; listed as Faslodex®,137.9 mgs and 140.1 mgs and 174.4 mgs and 119.7 mgs and 117.3 mgs
same,HER3 expression (VeraTag),total HER3,slight increase in HER3
same,Total and phosphorylated Akt levels (RPPA),Akt,increased
same,Total HER2 levels (RPPA),HER2,significantly increased
same,HER3 total levels (RPPA),HER3 [3],significantly increased
same,HER3-PI3K assay (VeraTag),HER3-PI3K complexes,no significant effect
same,HER2 expression levels (VeraTag),total HER2,significantly higher than in the MCLA-128 single or combined treatment groups; also recorded: significantly higher levels of HER2 expression
same,phospho HER3 assay (VeraTag),phosphorylated HER3,no significant effect
MCLA-128: ADCC-enhanced IgG1 bispecific antibody that targets the HER2:HER3 dimer,effect in any of the VeraTag assays relative to vehicle,[4],no significant effect
same,% TGI (tumor growth inhibition),[2],0%
same,median tumor volume,[2],600 mm3
same,P relative to the control group,[2],> 0.05
same,anti-tumor efficacy / survival benefit (in words),[2],no anti-tumor efficacy as a single agent
same,Volume (mm^3) of xenograft MCF-7 tumors,[2],144 mm^3 and 256 mm^3 and 221 mm^3 and 288 mm^3 and 320 mm^3
same,Weight (mgs) of xenograft MCF-7 tumors,[2],120.5 mgs and 98.2 mgs and 135.5 mgs and 134 mgs and 207.7 mgs
same,tolerability (in words),[5],well tolerated
same,maximum individual body weight loss,[5]; day of maximum as in text,8.3%
same,maximum mean body weight loss,[5]; day of maximum as in text,0.4%
same,in vitro potency,[6],superior to other anti-HER2 and anti-HER3 antibodies
same,Best T/C %,[7]; [8],91.14%
same,Best TGE %,[7]; [8],31.59%
same,T/C % (at control group day end),[7]; [8],101.56%
same,TGI % (at control group day end),[7]; [8],4.87%
same,median TGD × 3 (In days),[7]; [8],48.64 days
same,TFS (Tumor Free Survivor),[7]; number of complete regressions recorded up to Group Day End,0
same,CR (complete regression),[7]; number of mice with 0 to 14 mm^3 tumor size during at least 3 consecutive measurements,0
same,TS (Tumor Stabilization),[7]; number of mice with constant tumor size during at least 6 consecutive measurements,1/9 and 1
same,PR (partial regression),[7]; number of mice with tumor size lower than initial during at least 6 consecutive measurements,1/9 and 1
